The record followed here is patent US20170022171A1, “2,5-DISUBSTITUTED CYCLOPENTANECARBOXYLIC ACIDS AND THEIR USE” (Bayer Pharma Aktiengesellschaft, priority 2014, published 2017).

What all share (format): biochemical
One assay concerns the target T1, MMP-2 (Homo sapiens, UniProt P08253).
T1 construct: purchased R&D Systems 902-MP
T1 sequence (P08253 110-660): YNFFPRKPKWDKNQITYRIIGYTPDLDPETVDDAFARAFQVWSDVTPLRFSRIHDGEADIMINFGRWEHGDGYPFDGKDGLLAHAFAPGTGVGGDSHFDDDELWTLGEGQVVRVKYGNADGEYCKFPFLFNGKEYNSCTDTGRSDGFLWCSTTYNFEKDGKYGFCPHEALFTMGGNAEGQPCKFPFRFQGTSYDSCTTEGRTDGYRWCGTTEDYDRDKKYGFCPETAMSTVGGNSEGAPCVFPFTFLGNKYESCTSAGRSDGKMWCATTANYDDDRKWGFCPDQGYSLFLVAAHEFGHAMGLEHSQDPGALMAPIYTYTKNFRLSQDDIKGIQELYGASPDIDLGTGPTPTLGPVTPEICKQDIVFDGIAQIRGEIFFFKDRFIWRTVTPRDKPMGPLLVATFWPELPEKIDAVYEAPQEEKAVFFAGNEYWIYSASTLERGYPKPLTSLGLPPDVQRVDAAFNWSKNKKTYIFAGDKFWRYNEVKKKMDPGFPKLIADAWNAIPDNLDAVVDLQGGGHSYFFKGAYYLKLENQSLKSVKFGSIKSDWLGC
Nature of the assay: In vitro MMP-2 inhibition test. The text has this: (§1) The MMP-mediated amidolytic cleavage of a suitable peptide substrate leads to an increase in fluorescent light here too. The signal intensity of the fluorescent light is directly proportional to the enzyme activity. The active concentration of a test compound at which half the enzyme is inhibited (50% signal intensity of the fluorescent light) is reported as the IC50 value.
(§2) Recombinant MMP-2 (from R&D Systems, 902-MP) is chemically activated in accordance with the manufacturer's instructions using APMA. 1 μl of the test compound to be analysed (as a solution in DMSO, suitable concentrations, for example, 1 nM to 30 μM) is pipetted into 24 μl of activated enzyme (final concentration, for example, 2 nM) in reaction buffer (50 mM Tris/HCl pH 7.5, 10 mM CaCl2, 150 mM NaCl, 0.05% Brij®-35) in a white 384-hole microtiter plate (MTP). The enzymatic reaction is started by adding the intramolecularly quenched Mca-Pro-Leu-Gly-Leu-Dpa(Dnp)-Ala-Arg-NH2 substrate (final concentration, for example, 10 μM; R&D Systems, ES-001), so as to result in a total test volume of 50 μl. The course of the MMP-2 reaction is measured by measuring the fluorescence intensity (excitation 320 nm, emission 410 nm) over a suitable period of time (for example over 120 min at a temperature of 32° C.).

A further assay concerns the target T2, MMP-7 (Homo sapiens, UniProt P09237).
T2 construct: purchased R&D Systems 907-MP
T2 sequence (P09237 95-267): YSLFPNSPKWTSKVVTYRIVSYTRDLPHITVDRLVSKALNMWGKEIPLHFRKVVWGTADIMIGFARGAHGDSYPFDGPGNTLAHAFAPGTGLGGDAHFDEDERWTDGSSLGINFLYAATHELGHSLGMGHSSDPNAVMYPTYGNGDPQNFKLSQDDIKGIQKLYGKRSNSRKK
Kind of assay: In vitro MMP-7 inhibition test.
Description: as §1
as §2, with “Recombinant MMP-7” for “Recombinant MMP-2”, “Systems, 907-MP)” for “Systems, 902-MP)”, “example, 0.5” for “example, 2”, “[…]” for “50 μl.”, “the MMP-7” for “the MMP-2”

For another assay, the target named is T3, MMP-9 (Homo sapiens, UniProt P14780).
T3 construct: purchased R&D Systems 911-MP
T3 sequence (P14780 107-707 limits assumed): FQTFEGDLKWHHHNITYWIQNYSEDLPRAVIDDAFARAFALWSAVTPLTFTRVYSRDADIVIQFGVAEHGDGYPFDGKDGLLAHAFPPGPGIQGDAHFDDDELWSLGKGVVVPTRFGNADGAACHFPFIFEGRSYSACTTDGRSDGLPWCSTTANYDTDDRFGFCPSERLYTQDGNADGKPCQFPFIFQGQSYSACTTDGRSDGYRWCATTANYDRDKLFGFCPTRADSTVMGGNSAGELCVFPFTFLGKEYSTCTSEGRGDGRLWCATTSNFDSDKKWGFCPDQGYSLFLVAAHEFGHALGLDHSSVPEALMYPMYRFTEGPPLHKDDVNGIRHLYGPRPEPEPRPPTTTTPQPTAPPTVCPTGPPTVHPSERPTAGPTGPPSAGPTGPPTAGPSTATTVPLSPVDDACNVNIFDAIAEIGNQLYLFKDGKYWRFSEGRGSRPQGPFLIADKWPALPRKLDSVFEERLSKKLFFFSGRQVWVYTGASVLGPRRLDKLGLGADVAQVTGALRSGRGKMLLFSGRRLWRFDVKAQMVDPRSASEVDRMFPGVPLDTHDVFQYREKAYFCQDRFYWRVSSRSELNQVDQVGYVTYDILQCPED
Nature of the assay: In vitro MMP-9 inhibition test.
Description: as §1
as §2, with “Recombinant MMP-9” for “Recombinant MMP-2”, “Systems, 911-MP)” for “Systems, 902-MP)”, “example, 0.1” for “example, 2”, “the MMP-9” for “the MMP-2”

Another assay concerns the target T4, MMP-10 (Homo sapiens, UniProt P09238).
T4 construct: purchased R&D Systems 910-MP
Kind of assay: In vitro MMP-10 inhibition test.
Description: as §1
as §2, with “MMP-10” for “MMP-2”, “910-MP)” for “902-MP)”, “Mca-Arg-Pro-Lys-Pro-Val-Glu-Nval-Trp-Arg-Lys(Dnp)-NH2” for “Mca-Pro-Leu-Gly-Leu-Dpa(Dnp)-Ala-Arg-NH2”, “ES-002),” for “ES-001),”

T4 sequence (P09238 99-476): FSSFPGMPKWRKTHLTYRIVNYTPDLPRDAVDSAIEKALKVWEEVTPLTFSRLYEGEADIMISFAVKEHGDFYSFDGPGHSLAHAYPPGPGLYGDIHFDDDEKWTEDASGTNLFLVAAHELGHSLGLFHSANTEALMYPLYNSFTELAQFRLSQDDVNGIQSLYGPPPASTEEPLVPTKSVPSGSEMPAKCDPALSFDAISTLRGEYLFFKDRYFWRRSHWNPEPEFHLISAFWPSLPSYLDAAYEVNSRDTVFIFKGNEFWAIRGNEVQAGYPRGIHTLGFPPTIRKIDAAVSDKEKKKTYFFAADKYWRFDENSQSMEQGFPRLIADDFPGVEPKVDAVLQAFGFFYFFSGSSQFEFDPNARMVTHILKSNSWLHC

A word on the IC50: it is the concentration that inhibits the measured activity by half. High values mean weaker potency in that assay, low ones greater potency in that assay. Take `O=C(O)[C@@H]1[C@@H](Cn2nnc3ccc(C(F)(F)F)cc3c2=O)CC[C@H]1C(=O)c1ccc(SCc2ccccc2)cc1` (single isomer, unassigned) [Example 75, (+)-(1RS,2RS,5SR)-2-[4-(Benzylsulphanyl)benzoyl]-5-{[4-oxo-6-(trifluoromethyl)-1,2,3-benzotriazin-3(4H)-yl]methyl}cyclopentanecarboxylic acid]: the IC50 against MMP-2 is 4.2 µM; against MMP-7 it was 0.34 µM; against MMP-9 it was 0.47 µM; against MMP-10 it was 0.057 µM.

For `Cc1ccc2nnn(C[C@H]3CC[C@@H](C(=O)c4ccc(OCC5CCCCC5)cc4)[C@@H]3C(=O)O)c(=O)c2c1` (single isomer, unassigned) [Example 117, (+)-(1RS,2RS,5SR)-2-[4-(Cyclohexylmethoxy)benzoyl]-5-[(6-methyl-4-oxo-1,2,3-benzotriazin-3(4H)-yl)methyl]cyclopentanecarboxylic acid], the IC50 amounted to 0.097 µM against MMP-2, 0.1 µM on MMP-7, 0.054 µM against MMP-9 and 0.026 µM against MMP-10.

Regarding `O=C(O)[C@@H]1[C@@H](Cn2nnc3ccc(C(F)(F)F)cc3c2=O)CC[C@H]1C(=O)c1ccc(OCC2CCCC2)cc1` (single isomer, unassigned) [Example 44, (+)-(1RS,2RS,5SR)-2-[4-(Cyclopentylmethoxy)benzoyl]-5-{[4-oxo-6-(trifluoromethyl)-1,2,3-benzotriazin-3(4H)-yl]methyl}cyclopentanecarboxylic acid], the IC50 against MMP-2 was 0.27 µM; against MMP-7, 0.14 µM; at MMP-9 it was 0.052 µM; on MMP-10 it was 0.028 µM.

On to “(+)-(1RS,2SR,5RS)-2-{[4-Oxo-6-(trifluoromethyl)-1,2,3-benzotriazin-3(4H)-yl]methyl}-5-{4-[(2-phenylethy)sulphanyl]benzoyl}cyclopentanecarboxylic acid [Example 83]”, for which the IC50 on MMP-2 was 6.7 µM; against MMP-7 it was 0.16 µM; on MMP-9 it was 2.1 µM; against MMP-10, 0.12 µM.

Turning to `O=C(O)[C@@H]1[C@@H](Cn2nnc3ccc(C(F)(F)F)cc3c2=O)CC[C@H]1C(=O)c1ccc(OCc2ccc(F)cc2)cc1` (single isomer, unassigned) [Example 13, (+)-(1RS,2RS,5SR)-2-{4-[(4-Fluorobenzyl)oxy]benzoyl}-5-{[4-oxo-6-(trifluoromethyl)-1,2,3-benzotriazin-3(4H)-yl]methyl}cyclopentanecarboxylic acid], the IC50 at MMP-2 turned out to be 0.08 µM; on MMP-7 it was 0.12 µM; against MMP-9 it was 0.0044 µM; against MMP-10 it was 0.022 µM.

`O=C(O)[C@@H]1[C@@H](Cn2nnc3ccc(C(F)(F)F)cc3c2=O)CC[C@H]1C(=O)c1ccc(SCc2ccc(Cl)c(Cl)c2)cc1` (single isomer, unassigned) [Example 80, (+)-(1RS,2RS,5SR)-2-{4-[(3,4-Dichlorobenzyl)sulphanyl]benzoyl}-5-{[4-oxo-6-(trifluoromethyl)-1,2,3-benzotriazin-3(4H)-yl]methyl}cyclopentanecarboxylic acid]: the IC50 came to 1.4 µM on MMP-2, 0.2 µM at MMP-7, 0.78 µM against MMP-9 and 0.053 µM at MMP-10.

Take `Cc1cccc(COc2ccc(C(=O)[C@H]3CC[C@@H](Cn4nnc5ccc(C)cc5c4=O)[C@@H]3C(=O)O)cc2)c1` (racemic) [Example 97, (+/−)-(1RS,2RS,5SR)-2-{4-[(3-Methylbenzyl)oxy]benzoyl}-5-[(6-methyl-4-oxo-1,2,3-benzotriazin-3(4H)-yl)methyl]cyclopentanecarboxylic acid]: the IC50 stood at 2.3 µM against MMP-2, 1.5 µM against MMP-7, 0.74 µM against MMP-9 and 0.16 µM against MMP-10.

In the case of `CCCCCOc1ccc(C(=O)[C@H]2CC[C@@H](Cn3nnc4ccc(C)cc4c3=O)[C@@H]2C(=O)O)cc1` (racemic) [Example 123, (+/−)-(1RS,2SR,5RS)-2-[(6-Methyl-4-oxo-1,2,3-benzotriazin-3(4H)-yl)methyl]-5-[4-(pentyloxy)benzoyl]cyclopentanecarboxylic acid], the IC50 on MMP-2 stood at 0.17 µM; against MMP-7, 0.39 µM; against MMP-9, 0.094 µM; against MMP-10, 0.081 µM.

Take `O=C(O)[C@@H]1[C@@H](Cn2nnc3ccc(C(F)(F)F)cc3c2=O)CC[C@H]1C(=O)c1ccc(OCc2cccc(C(F)(F)F)c2)cc1` (single isomer, unassigned) [Example 19, (+)-(1RS,2SR,5RS)-2-{[4-Oxo-6-(trifluoromethyl)-1,2,3-benzotriazin-3(4H)-yl]methyl}-5-(4-{[3-(trifluoromethyl)benzyl]oxy}benzoyl)cyclopentanecarboxylic acid]: the IC50 at MMP-2 amounted to 3.8 µM; at MMP-7 it was 1.6 µM; on MMP-9, 1 µM; on MMP-10 it was 0.27 µM.

`O=C(O)[C@@H]1[C@@H](Cn2nnc3ccc(C(F)(F)F)cc3c2=O)CC[C@H]1C(=O)c1ccc(OCc2cccc(Cl)c2)cc1` (single isomer, unassigned) [Example 23, (+)-(1RS,2RS,5SR)-2-{4-[(3-Chlorobenzyl)oxy]benzoyl}-5-{[4-oxo-6-(trifluoromethyl)-1,2,3-benzotriazin-3(4H)-yl]methyl}cyclopentanecarboxylic acid]: the IC50 turned out to be 1.6 µM at MMP-2, 0.5 µM on MMP-7, 0.27 µM against MMP-9 and 0.087 µM against MMP-10.
